Laboratory results as given in patent publication US20240131007A1, “METHODS AND COMPOSITIONS FOR PICORNAVIRUS ANTI-VIRAL AGENTS” (University of Connecticut, priority 2022, published 2024).
Entries after “also recorded” stand apart in the source; their conditions may differ. Where two headings read alike, the source gives them in different places.

Tests used:
EV-A71 Δ2C^116-329 [1] = target: T1, EV-A71 Δ2C^116-329 (Human enterovirus 71, UniProt Q66478); assay: biochemical; assay type: biochemical
T1 construct: EV-A71 Δ2C (amino acids 116-329) was designed with; made in house; host or cells: E. coli Rosetta 2(DE3) pLysS, pMALc5x vector

human echovirus-11 = assay: NIAID cytopathic effect assay, human echovirus-11; assay type: cell-based
human echovirus-30 = assay: NIAID cytopathic effect assay, human echovirus-30; assay type: cell-based
[2] = system: coxsackievirus-B3 (CV-B3); assay: CPE inhibition assay against CV-B3 in HeLa cells; assay type: cell-based
[3] = system: poliovirus Mahoney strain; assay: microbe, parasite or virus in culture; assay type: cell-based; conditions: Enterovirus C, Vero, read-out: IC50 for virus induced CPE inhibition
EV-71 [4] = assay: microbe, parasite or virus in culture; conditions: Enterovirus A, EV71, read-out: EC90 μM
EV-68 [5] = assay: NIAID Antiviral Program for Pandemics primary assay (CPE/Tox), EV-68; conditions: Enterovirus D
[6] = as above; conditions: CC50 µM, primary assay, EV-68
EV-D68 = assay: CPE inhibition assay against EV-D68 in Vero cells; assay type: cell-based; conditions: Enterovirus D, EVD68, read-out: IC50 for virus induced CPE inhibition
EV-A71 replicon = EV-A71 replicon assay in HeLa cells; conditions: 1, 5 or 25 μM, 14 hours post transfection
EV-71 [7] = assay: NIAID secondary assay, Neutral Red (CPE/Tox), EV-71; conditions: Enterovirus A, EV71, read-out: EC50 μM
[8] = as above
West Nile virus = assay: NIAID cytopathic effect assay, West Nile virus; assay type: cell-based
PV-1 = assay type: cell-based, Poliovirus
EV-A71 = assay: CPE inhibition assay (Cell Titer Glo) against EV-A71 in Vero cells; assay type: cell-based, Enterovirus A71; conditions: for IC50: Enterovirus A, EVA71, EV-A71, Vero cells
[9] = system: Middle East Respiratory Syndrome; assay type: cell-based
in vitro [10] = assay: in vitro
influenza A (H1N1) = assay: NIAID cytopathic effect assay, influenza A (H1N1); assay type: cell-based
in vitro [11] = conditions: African green monkey
EV-A71 Δ2C^116-329 [12] = target: T1, EV-A71 Δ2C^116-329; assay type: binding; conditions: 0.02 μM to 200 μM compound
EV-71 [13] = assay: NIAID Antiviral Program for Pandemics primary assay (CPE/Tox), EV-71; conditions: Enterovirus A
[14] = as above; conditions: CC50 µM, primary assay, EV-71
[15] = system: Eastern equine encephalitis virus; assay type: cell-based
EV-68 [16] = assay: NIAID secondary assay, Neutral Red (CPE/Tox), EV-68; conditions: Enterovirus D, EV68, read-out: EC50 μM
[17] = as above
EV-68 [18] = assay: NIAID secondary assay, Virus Yield Reduction, EV-68; conditions: Enterovirus D, EV68, read-out: EC90 μM
[19] = as above
CV-B3 = assay: NIAID cytopathic effect assay, CV-B3; assay type: cell-based, Coxsackievirus B3

T1 sequence (Q66478 1227-1440, stated change not applied): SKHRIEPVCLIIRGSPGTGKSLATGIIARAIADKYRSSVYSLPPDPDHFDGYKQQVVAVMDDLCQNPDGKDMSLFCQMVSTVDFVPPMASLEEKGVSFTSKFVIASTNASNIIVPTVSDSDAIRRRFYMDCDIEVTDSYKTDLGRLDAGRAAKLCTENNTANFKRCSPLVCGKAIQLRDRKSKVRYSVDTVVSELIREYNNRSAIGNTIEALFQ

Cc1ccc2[nH]c(-c3ccc(NC(=O)c4cccs4)cc3)nc2c1 [Compound 36, N-[4-(5-methyl-1H-benzimidazol-2-yl)phenyl]-2-thiophenecarboxamide]
IC50 (EV-A71 Δ2C^116-329 [1]): 23.4 µM
dose dependence of inhibition of the ATPase function of Δ2C^116-329 (EV-A71 Δ2C^116-329 [1]; dose response): clear dose-dependent response
activity against human echovirus-11 (human echovirus-11): no activity
activity against human echovirus-30 (human echovirus-30): no activity
inhibition of CV-B3 [2]: did not inhibit; also recorded: not active
IC50 [3]: 1.7 µM
EC90 (EV-71 [4]): 3.2 µM
EC50 (EV-68 [5]; EV68, read-out: EC50 μM, primary assay, EV-68, Neutral Red (CPE/Tox)): 0.39 µM
EC50 (EV-68 [5]; EV68, read-out: EC50 μM, primary assay, EV-68, Visual (CPE/Tox)): 0.52 µM
EC50 (EV-68 [5]; EV68|EVD68, read-out: EC50 against EV-D68, text, primary cytopathic effect assay): 0.39 to 0.52 µM
CC50 ([6]; Neutral Red (CPE/Tox)): 9 µM
CC50 ([6]; Visual (CPE/Tox)): 24 µM
IC50 (EV-D68): 0.85 µM
number of reporter positive cells compared with the untreated control (EV-A71 replicon): no statistically significant difference
EC50 (EV-71 [7]): 1.7 µM
CC50 [8]: 25 µM
activity against West Nile virus (West Nile virus): no activity
activity against PV-1 (PV-1): no activity
Selectivity Index (EV-A71): 29.59
selectivity index (EV-A71): 29.6
IC50 (EV-A71; read-out: IC50 for inhibition of virus-induced CPE): 2.66 µM
IC50 (EV-A71; Table 8, virus-induced CPE, read-out: IC50): 2.66 µM
activity against Middle East Respiratory Syndrome [9]: no activity
CC50 (in vitro [10]): 27 µM
activity against influenza A (H1N1) (influenza A (H1N1)): no activity
CC50 at 3 days (in vitro [11]; CC50): 78.7 µM
CC50 at 3 days (in vitro [11]; CC50 (μM)): 78.7 µM
shift in melting temperature (Tm) of Δ2C^116-329 (EV-A71 Δ2C^116-329 [12]): dose-dependent increase in the Tm
EC50 (EV-71 [13]; EV71, read-out: EC50 μM, primary assay, EV-71, Neutral Red (CPE/Tox)): 4.7 µM
EC50 (EV-71 [13]; EV71, read-out: EC50 μM, primary assay, EV-71, Visual (CPE/Tox)): > 32 µM
EC50 (EV-71 [13]; EV71|EVA71, read-out: EC50 against EV-A71, text, primary cytopathic effect assay): 4.2 µM
CC50 ([14]; Neutral Red (CPE/Tox)): 42 µM
CC50 ([14]; Visual (CPE/Tox)): 32 µM
activity against Eastern equine encephalitis virus [15]: no activity
EC50 (EV-68 [16]): 0.52 µM
CC50 [17]: 3.5 µM
EC90 (EV-68 [18]): 0.59 µM
CC50 [19]: 9.4 µM
activity against CV-B3 (CV-B3): no activity
